# Values of other authors in patent publication US20250352610A1, “NOVEL COMPOSITION” (Arecor Limited, priority 2022, published 2025).
# Conditions: excipients of VancoReady; black box warning
smiles,measurement,value
CC(=O)N[C@H](C)C(=O)O [N-acetyl-D-alanine],Fetal malformations in animal reproductive studies,cause fetal malformations
